In ChEMBL document CHEMBL4265906, “Synthesis and biological evaluation of isoxazolyl-sulfonamides: A non-cytotoxic scaffold active against Trypanosoma cruzi, Leishmania amazonensis and Herpes Simplex Virus” (Bioorg Med Chem Lett, 2018):
Calls of active or inactive are those of the source. The calls are words filed in the database; no cut-off is given here.

Experiments:
Leishmania amazonensis [1] = assay: Leishmanicidal activity against Leishmania amazonensis MHOM/BR/77/LTB0016 amastigotes infected in human THP1 cells assessed as growth inhibition at 50 uM after 48 hrs by chlorophenolred-beta-d-galactopyranoside/Nonidet P-40 reagent-based assay; format: functional; details: for inhibition of growth at 50 µM: MHOM/BR/77/LTB0016, THP-1, 48 h, read-out: GI
Trypanosoma cruzi [2] = assay: Trypanocidal activity against Trypanosoma cruzi Tulahuen trypomastigotes infected in human THP1 cells assessed as growth inhibition after 48 hrs by chlorophenolred-beta-d-galactopyranoside/Nonidet P-40 reagent-based assay; format: functional
[3] = Selectivity index, ratio of CC50 for African green monkey Vero cells to IC50 for HSV1 KOS; format: toxicity; details: read-out: Ratio CC50/IC50
Human alphaherpesvirus 1 [4] = assay: Antiviral activity against […] HSV1 KOS infected in African green monkey Vero cells assessed as inhibition of viral replication after 48 hrs by naphthol blue-black staining-based assay; format: functional, organism-based
Human alphaherpesvirus 1 [5] = assay: Antiviral activity against […] HSV1 KOS infected in African green monkey Vero cells assessed as inhibition of viral replication at 100 uM after 48 hrs by naphthol blue-black staining-based assay; format: functional; details: for inhibition at 100 µM: Human alphaherpesvirus 1, KOS
Trypanosoma cruzi [6] = assay: Trypanocidal activity against Trypanosoma cruzi Tulahuen trypomastigotes infected in human THP1 cells assessed as growth inhibition at 50 uM after 48 hrs by chlorophenolred-beta-d-galactopyranoside/Nonidet P-40 reagent-based assay; format: functional; details: for inhibition of growth at 50 µM: THP-1, 48 h, read-out: GI
Leishmania amazonensis [7] = assay: Leishmanicidal activity against Leishmania amazonensis MHOM/BR/77/LTB0016 amastigotes infected in human THP1 cells assessed as growth inhibition at 2 uM after 48 hrs by chlorophenolred-beta-d-galactopyranoside/Nonidet P-40 reagent-based assay; format: functional; details: MHOM/BR/77/LTB0016, THP-1, 48 h, read-out: GI
[8] = Selectivity index, ratio of CC50 for human THP1 cells to G150 for Trypanosoma cruzi Tulahuen trypomastigotes; format: toxicity; details: THP-1 cells, read-out: Selectivity Index
[9] = Cytotoxicity against human THP1 cells assessed as reduction in cell viability by MTT assay; format: cell-based; details: THP-1 cells
[10] = Cytotoxicity against human HCT8 cells assessed as reduction in cell viability after 48 hrs by sulforhodamine B assay; format: cell-based; details: HCT-8 cells
[11] = Cytotoxicity against African green monkey Vero cells assessed as reduction in cell viability after 48 hrs by sulforhodamine B assay; format: cell-based; details: chlorocebus sabaeus
[12] = Cytotoxicity against human A549 cells assessed as reduction in cell viability after 48 hrs by sulforhodamine B assay; format: cell-based
Trypanosoma cruzi [13] = assay: Trypanocidal activity against Trypanosoma cruzi Tulahuen trypomastigotes infected in human THP1 cells at 20 uM after 48 hrs by chlorophenolred-beta-d-galactopyranoside/Nonidet P-40 reagent-based assay; format: functional; details: THP-1, 48 h, read-out: GI
[14] = Human alphaherpesvirus 1, KOS, Vero, 48 h, read-out: IC50

## O=S(=O)(NCc1cc(-c2ccc3c(c2)OCO3)no1)c1ccc(F)cc1
Leishmania amazonensis [1]
  inhibition of growth at 50 µM: 12.8%
Trypanosoma cruzi [2]
  GI50: inactive
[3]
  selectivity ratio: > 2.9
Human alphaherpesvirus 1 [4]; [14]
  IC50: 173 µM
Human alphaherpesvirus 1 [5]
  inhibition at 100 µM: 70.1%
Trypanosoma cruzi [6]
  growth inhibition (GI): inactive

## C[C@@H]1[C@H](O)[C@@H](C)/C=C/C=C/C=C/C=C/C=C/C=C/C=C/[C@H](O[C@@H]2O[C@H](C)[C@@H](O)[C@H](N)[C@@H]2O)C[C@@H]2O[C@](O)(C[C@@H](O)C[C@@H](O)[C@H](O)CC[C@@H](O)C[C@@H](O)CC(=O)O[C@H]1C)C[C@H](O)[C@H]2C(=O)O [AMPHOTERICIN B]
Leishmania amazonensis [7]
  inhibition of growth at 2 µM: 92.1%

## Cc1ccc(S(=O)(=O)NCc2cc(-c3ccccc3)no2)cc1
Leishmania amazonensis [1]
  inhibition of growth at 50 µM: 10.9%
Trypanosoma cruzi [2]; THP-1, 48 h
  GI50: > 50 µM
Human alphaherpesvirus 1 [4]; [14]
  IC50: > 100 µM
Human alphaherpesvirus 1 [5]
  inhibition at 100 µM: 25.3%
Trypanosoma cruzi [6]
  inhibition of growth at 50 µM: 5.8%

## O=[N+]([O-])c1ccc(S(=O)(=O)NCc2cc(-c3ccc4c(c3)OCO4)no2)cc1
Leishmania amazonensis [1]
  inhibition of growth at 50 µM: 43.4%
[8]
  selectivity ratio: 29.1
[9]
  CC50: 339 µM
Trypanosoma cruzi [2]; THP-1, 48 h
  GI50: 11.6 µM
[10]
  CC50 at 48 h: > 500 µM
Human alphaherpesvirus 1 [4]; [14]
  IC50: > 100 µM
Human alphaherpesvirus 1 [5]
  inhibition at 100 µM: 25.3%
[11]
  CC50 at 48 h: 387 µM
Trypanosoma cruzi [6]
  inhibition of growth at 50 µM: 86.3%
[12]
  CC50 at 48 h: 284 µM

## COc1ccc(-c2cc(CNS(=O)(=O)c3ccc(F)cc3)on2)cc1OC
Leishmania amazonensis [1]
  inhibition of growth at 50 µM: 6.6%
[8]
  selectivity ratio: 7.1
[9]
  CC50: 300 µM
Trypanosoma cruzi [2]; THP-1, 48 h
  GI50: 42.4 µM
[10]
  CC50 at 48 h: 374 µM
Human alphaherpesvirus 1 [4]; [14]
  IC50: > 100 µM
Human alphaherpesvirus 1 [5]
  inhibition at 100 µM: 22.8%
[11]
  CC50 at 48 h: 397 µM
Trypanosoma cruzi [6]
  inhibition of growth at 50 µM: 72.8%
[12]
  CC50 at 48 h: 327 µM

## Nc1nc2c(ncn2COCCO)c(=O)[nH]1 [ACYCLOVIR]
[3]
  selectivity ratio: > 1500
Human alphaherpesvirus 1 [4]; [14]
  IC50: 1.29 µM

## O=C(Cn1ccnc1[N+](=O)[O-])NCc1ccccc1 [BENZNIDAZOLE]
Trypanosoma cruzi [13]
  inhibition of growth at 20 µM: 96.6%
[8]
  selectivity ratio: > 49.1
Trypanosoma cruzi [2]; THP-1, 48 h
  GI50: 10.2 µM

## COc1ccc(-c2cc(CNS(=O)(=O)c3ccc(C)cc3)on2)cc1OC
Leishmania amazonensis [1]
  inhibition of growth at 50 µM: 4.1%
Trypanosoma cruzi [2]; THP-1, 48 h
  GI50: > 50 µM
Human alphaherpesvirus 1 [4]; vero
  IC50: Not Active
Human alphaherpesvirus 1 [5]
  inhibition: inactive
Trypanosoma cruzi [6]
  inhibition of growth at 50 µM: 25.6%

## COc1ccc(-c2cc(CNS(=O)(=O)c3ccc([N+](=O)[O-])cc3)on2)cc1
Leishmania amazonensis [1]
  inhibition of growth at 50 µM: 48.7%
[8]
  selectivity ratio: > 34.8
Trypanosoma cruzi [2]; THP-1, 48 h
  GI50: 14.3 µM
[3]
  selectivity ratio: > 3.6
Human alphaherpesvirus 1 [4]; [14]
  IC50: 137 µM
Human alphaherpesvirus 1 [5]
  inhibition at 100 µM: 60%
Trypanosoma cruzi [6]
  inhibition of growth at 50 µM: 85.8%

## O=[N+]([O-])c1ccc(-c2cc(CNS(=O)(=O)c3ccc(Cl)cc3)on2)cc1
Leishmania amazonensis [1]
  inhibition of growth at 50 µM: 2%
Trypanosoma cruzi [2]
  GI50: inactive
Human alphaherpesvirus 1 [4]; vero
  IC50: Not Active
Human alphaherpesvirus 1 [5]
  inhibition: inactive
Trypanosoma cruzi [6]
  growth inhibition (GI): inactive

## Cc1ccc(S(=O)(=O)NCc2cc(-c3ccc4c(c3)OCO4)no2)cc1
Leishmania amazonensis [1]
  inhibition of growth at 50 µM: 11.4%
[9]
  CC50: > 500 µM
Trypanosoma cruzi [2]
  GI50: inactive
[10]
  CC50 at 48 h: 437 µM
Human alphaherpesvirus 1 [4]; [14]
  IC50: > 100 µM
Human alphaherpesvirus 1 [5]
  inhibition at 100 µM: 19.1%
[11]
  CC50 at 48 h: > 500 µM
Trypanosoma cruzi [6]
  growth inhibition (GI): inactive
[12]
  CC50 at 48 h: 358 µM

## COc1ccc(-c2cc(CNS(=O)(=O)c3ccc(C)cc3)on2)cc1
Leishmania amazonensis [1]
  inhibition of growth at 50 µM: 2%
[9]
  CC50: > 500 µM
Trypanosoma cruzi [2]
  GI50: inactive
[10]
  CC50 at 48 h: > 500 µM
[3]
  selectivity ratio: > 3.4
Human alphaherpesvirus 1 [4]; [14]
  IC50: 95.9 µM
Human alphaherpesvirus 1 [5]
  inhibition at 100 µM: 65%
[11]
  CC50 at 48 h: ≥ 331 µM
Trypanosoma cruzi [6]
  growth inhibition (GI): inactive
[12]
  CC50 at 48 h: > 500 µM

## O=[N+]([O-])c1ccc(S(=O)(=O)NCc2cc(-c3ccccc3)no2)cc1
Leishmania amazonensis [1]
  inhibition of growth at 50 µM: 18.4%
Trypanosoma cruzi [2]; THP-1, 48 h
  GI50: > 50 µM
Human alphaherpesvirus 1 [4]; [14]
  IC50: > 100 µM
Human alphaherpesvirus 1 [5]
  inhibition at 100 µM: 10.4%
Trypanosoma cruzi [6]
  inhibition of growth at 50 µM: 34%

## COc1ccc(-c2cc(CNS(=O)(=O)c3ccc([N+](=O)[O-])cc3)on2)cc1OC
Leishmania amazonensis [1]
  inhibition of growth at 50 µM: 10.2%
Trypanosoma cruzi [2]; THP-1, 48 h
  GI50: > 50 µM
Human alphaherpesvirus 1 [4]; vero
  IC50: Not Active
Human alphaherpesvirus 1 [5]
  inhibition: inactive
Trypanosoma cruzi [6]
  inhibition of growth at 50 µM: 53.9%

## O=[N+]([O-])c1ccc(-c2cc(CNS(=O)(=O)c3ccc([N+](=O)[O-])cc3)on2)cc1
Leishmania amazonensis [1]
  inhibition of growth at 50 µM: 25.2%
[8]
  selectivity ratio: > 12.9
Trypanosoma cruzi [2]; THP-1, 48 h
  GI50: 38.6 µM
Human alphaherpesvirus 1 [4]; vero
  IC50: Not Active
Human alphaherpesvirus 1 [5]
  inhibition: inactive
Trypanosoma cruzi [6]
  inhibition of growth at 50 µM: 76.2%

## O=S(=O)(NCc1cc(-c2ccc3c(c2)OCO3)no1)c1ccc(Cl)cc1
Leishmania amazonensis [1]
  inhibition of growth at 50 µM: 30.7%
Trypanosoma cruzi [2]; THP-1, 48 h
  GI50: > 50 µM
Human alphaherpesvirus 1 [4]; vero
  IC50: Not Active
Human alphaherpesvirus 1 [5]
  inhibition: inactive
Trypanosoma cruzi [6]
  inhibition of growth at 50 µM: 14.2%

## O=S(=O)(NCc1cc(-c2ccccc2)no1)c1ccc(F)cc1
Leishmania amazonensis [1]
  inhibition of growth at 50 µM: 13.2%
Trypanosoma cruzi [2]
  GI50: inactive
Human alphaherpesvirus 1 [4]; [14]
  IC50: > 100 µM
Human alphaherpesvirus 1 [5]
  inhibition at 100 µM: 40.2%
Trypanosoma cruzi [6]
  growth inhibition (GI): inactive

## COc1ccc(-c2cc(CNS(=O)(=O)c3ccc(F)cc3)on2)cc1
Leishmania amazonensis [1]
  inhibition of growth at 50 µM: 14%
Trypanosoma cruzi [2]; THP-1, 48 h
  GI50: > 50 µM
[3]
  selectivity ratio: > 5.7
Human alphaherpesvirus 1 [4]; [14]
  IC50: 87.4 µM
Human alphaherpesvirus 1 [5]
  inhibition at 100 µM: 100%
Trypanosoma cruzi [6]
  inhibition of growth at 50 µM: 44.5%

## O=[N+]([O-])c1ccc(-c2cc(CNS(=O)(=O)c3ccc(F)cc3)on2)cc1
Leishmania amazonensis [1]
  inhibition of growth at 50 µM: 15.7%
Trypanosoma cruzi [2]; THP-1, 48 h
  GI50: > 50 µM
Human alphaherpesvirus 1 [4]; vero
  IC50: Not Active
Human alphaherpesvirus 1 [5]
  inhibition: inactive
Trypanosoma cruzi [6]
  inhibition of growth at 50 µM: 7.8%

## COc1ccc(-c2cc(CNS(=O)(=O)c3ccc(Cl)cc3)on2)cc1OC
Leishmania amazonensis [1]
  growth inhibition (GI): inactive
Trypanosoma cruzi [2]; THP-1, 48 h
  GI50: > 50 µM
Human alphaherpesvirus 1 [4]; [14]
  IC50: > 100 µM
Human alphaherpesvirus 1 [5]
  inhibition at 100 µM: 2%
Trypanosoma cruzi [6]
  inhibition of growth at 50 µM: 27.4%

## Cc1ccc(S(=O)(=O)NCc2cc(-c3ccc([N+](=O)[O-])cc3)no2)cc1
Leishmania amazonensis [1]
  inhibition of growth at 50 µM: 9.3%
Trypanosoma cruzi [2]; THP-1, 48 h
  GI50: > 50 µM
Human alphaherpesvirus 1 [4]; vero
  IC50: Not Active
Human alphaherpesvirus 1 [5]
  inhibition: inactive
Trypanosoma cruzi [6]
  inhibition of growth at 50 µM: 9.8%

## O=S(=O)(NCc1cc(-c2ccccc2)no1)c1ccc(Cl)cc1
Leishmania amazonensis [1]
  inhibition of growth at 50 µM: 17.2%
Trypanosoma cruzi [2]; THP-1, 48 h
  GI50: > 50 µM
Human alphaherpesvirus 1 [4]; [14]
  IC50: > 100 µM
Human alphaherpesvirus 1 [5]
  inhibition at 100 µM: 17.8%
Trypanosoma cruzi [6]
  inhibition of growth at 50 µM: 16.6%

## COc1ccc(-c2cc(CNS(=O)(=O)c3ccc(Cl)cc3)on2)cc1
Leishmania amazonensis [1]
  inhibition of growth at 50 µM: 6.4%
Trypanosoma cruzi [2]
  GI50: inactive
Human alphaherpesvirus 1 [4]; [14]
  IC50: > 100 µM
Human alphaherpesvirus 1 [5]
  inhibition at 100 µM: 32%
Trypanosoma cruzi [6]
  growth inhibition (GI): inactive
